The source of these data is US10350210B2, “EGFR and ALK dual inhibitor” (PRECEDO PHARMACEUTICALS CO., LTD, priority 2015, dated 2019).

One assay deals with BaF3-FL-EGFR-Del19. As to the kind of experiment: Cell growth (Cell Titer-Glo viability), BaF3-FL-EGFR-Del19. Type of assay: cell-based. Conditions: Mus musculus; BaF3-FL-EGFR-Del19 (EGFR delE746_A750 mutant kinase), 72 hrs. From the text:
(§1) By testing the effect of the novel kinase inhibitors on the proliferation of cancer cells, the selectivity of the compounds of the present disclosure in inhibiting the proliferation of cancer cells was further assessed. In this example, human non-small cell lung cancer cell NCI-H1975 (expressing EGFR L858R/T790M double mutant gene), human skin squamous carcinoma cell A431 (expressing wild-type EGFR gene), non-small cell lung cancer NCI-H3255 (expressing EGFR L858R mutant gene), non-small cell lung cancer cell NCI-H3122 (expressing ALK gene), human non-small cell lung cancer cell A549 (expressing wild-type EGFR gene), human non-small cell lung cancer cell NCI-H2122 (expressing wild-type EGFR gene), human non-small cell lung cancer cell NCI-H460 (expressing wild-type EGFR gene), human non-small cell lung cancer cell PC-9 (expressing EGFR delE746_A750 mutant gene), Chinese hamster ovary cell CHO (Cricetulus griseus, hamster, Chinese, ovary), Chinese hamster lung cell CHL, human non-small cell lung cancer cell HCC827 (expressing mutant EGFR del19 gene), human lung adenocarcinoma cell HCC4006 (expressing mutant EGFR del19 gene), human non-small cell lung cancer cell NCI-H2228 (expressing wild-type ALK gene), and mouse primary B cell BaF3 were used, and the above cells were all purchased from ATCC (US). In addition, mouse BaF3-TEL-ALK (stably expressing ALK kinase), mouse BaF3-ALK-F1174L (stably expressing mutant ALK F1174L kinase), mouse BaF3-NPM-ALK (stably expressing ALK kinase), mouse BaF3-TEL-EGFR (stably expressing EGFR kinase), mouse BaF3-TEL-EGFR-T790M (stably expressing EGFR T790M mutant kinase), mouse BaF3-FL-EGFR-Del19 (stably expressing EGFR delE746_A750 mutant kinase), mouse BaF3-TEL-EGFR-L858R (stably expressing EGFR L858R mutant kinase), mouse BaF3-FL-EGFR-T790M-L858R (stably expressing EGFR T790M/L858R mutant kinase), mouse BaF3-TEL-INSR (stably expressing INSR protein), mouse BaF3-TEL-IGF1R (stably expressing IGF1R Protein), mouse BaF3-EML4-ALK (stably expressing EML4-ALK Protein), mouse BaF3-TEL-JAK3 (stably expressing JAK3 kinase protein), mouse BaF3-TEL-CSF1R (stably expressing CSF1R protein), and mouse BaF3-TEL-ALK-F1196M (stably expressing ALK F1196M mutant kinase) were also used in this example. The above cell lines were all established by our laboratory via the following process: kinase proteins or protein domain sequences of human ALK, ALK F1174L, EGFR, EGFR T790M, EGFR delE746_A750, EGFR L858, EGFR T790M/L858R, INSR, IGF1R, EML4-ALK, JAK3, CSF1R, ALK F1196M were amplified respectively by PCR, and were respectively inserted into MSCV-Puro vector (Clontech) with N-terminal TEL fragments and/or NPM fragments and/or TPR fragments; the resultants were stably transfected into mouse BaF3 cells by the means of retrovirus, and the IL-3 growth factors were removed, and eventually the ALK, ALK F1174L, EGFR, EGFR T790M, EGFR delE746_A750, EGFR L858, EGFR T790M/L858R, INSR, IGF1R, EML4-ALK, JAK3, CSF1R, ALK F1196M-transferred protein dependent cell lines were obtained.
(§2) The number of viable cells was determined quantitatively by a microplate reader using Cell Titer-Glo® (Promega, US) chemiluminescence cell viability assay kit.
(In ATP-based viability assays light output follows the ATP content of the culture.)

For the next assay, the system named is CHL. As to the kind of experiment: Cell growth (Cell Titer-Glo viability), CHL. Type of assay: cell-based, Chinese hamster. The note with it: Cricetulus griseus; CHL Chinese hamster lung cell, 72 hrs; read-out: GI50.
Source text: as §1, §2

A further assay concerns BaF3. As to the kind of experiment: Cell growth (Cell Titer-Glo viability), BaF3. In kind it is cell-based. Conditions: BaF3 mouse primary B cell, 72 hrs.
Source text: as §1, §2

A further assay concerns CHO. Description: Cell growth (Cell Titer-Glo viability), CHO. The note with it: Cricetulus griseus; CHO Chinese hamster ovary cell, 72 hrs; read-out: GI50. In kind it is cell-based, Chinese hamster.
Source text: as §1, §2

Another assay has as its system BaF3-TEL-EGFR-T790M. As to the kind of experiment: Cell growth (Cell Titer-Glo viability), BaF3-TEL-EGFR-T790M. Type of assay: cell-based. Conditions: Mus musculus; BaF3-TEL-EGFR-T790M (EGFR T790M mutant kinase), 72 hrs.
Source text: as §1, §2

In the next assay the test system is NCI-H3122. As to the kind of experiment: Growth of cancer cells (Cell Titer-Glo viability), NCI-H3122. Type of assay: cell-based. The note with it: Homo sapiens; NCI-H3122 (expressing ALK gene), 72 hrs; read-out: GI50.
Source text: as §1, §2

The test system of the next assay is BaF3-ALK-F1174L. As to the kind of experiment: Cell growth (Cell Titer-Glo viability), BaF3-ALK-F1174L. Conditions: Mus musculus; BaF3-ALK-F1174L (mutant ALK F1174L kinase), 72 hrs. Type of assay: cell-based.
Source text: as §1, §2

In a further assay the test system is BaF3-TEL-ALK. Description: Cell growth (Cell Titer-Glo viability), BaF3-TEL-ALK. In kind it is cell-based. Conditions: Mus musculus; BaF3-TEL-ALK (stably expressing ALK kinase), 72 hrs.
Source text: as §1, §2

Another assay deals with A431. Description: Growth of cancer cells (Cell Titer-Glo viability), A431. In kind it is cell-based. The note with it: Homo sapiens, A-431; A431 (wild-type EGFR), 72 hrs; read-out: GI50.
Source text: as §1, §2

Another assay concerns NCI-H1975. Description: Growth of cancer cells (Cell Titer-Glo viability), NCI-H1975. Type of assay: cell-based. Conditions: Homo sapiens; NCI-H1975 (EGFR L858R/T790M double mutant), 72 hrs.
Source text: as §1, §2

A further assay deals with A549. As to the kind of experiment: Growth of cancer cells (Cell Titer-Glo viability), A549. Type of assay: cell-based. Conditions: Homo sapiens; A549 (wild-type EGFR), 72 hrs.
Source text: as §1, §2

In the next assay the test system is HCC827. Description: Growth of cancer cells (Cell Titer-Glo viability), HCC827. Type of assay: cell-based. Conditions: Homo sapiens; HCC827 (mutant EGFR del19), 72 hrs.
Source text: as §1, §2

For the next assay, the system named is PC-9. Description: Growth of cancer cells (Cell Titer-Glo viability), PC-9. Type of assay: cell-based. Conditions: Homo sapiens; PC-9 (EGFR delE746_A750 mutant), 72 hrs.
Source text: as §1, §2

For the next assay, the system named is NCI-H2228. As to the kind of experiment: Growth of cancer cells (Cell Titer-Glo viability), NCI-H2228. In kind it is cell-based. Conditions: Homo sapiens; NCI-H2228 (wild-type ALK), 72 hrs.
Source text: as §1, §2

The next assay has as its system HCC4006. As to the kind of experiment: Growth of cancer cells (Cell Titer-Glo viability), HCC4006. Type of assay: cell-based. The note with it: Homo sapiens; HCC4006 (mutant EGFR del19), 72 hrs.
Source text: as §1, §2

Another assay concerns NCI-H2122. Description: Growth of cancer cells (Cell Titer-Glo viability), NCI-H2122. In kind it is cell-based. Conditions: Homo sapiens; NCI-H2122 (wild-type EGFR), 72 hrs.
Source text: as §1, §2

The next assay deals with NCI-H3255. As to the kind of experiment: Growth of cancer cells (Cell Titer-Glo viability), NCI-H3255. The note with it: Homo sapiens; NCI-H3255 (EGFR L858R mutant), 72 hrs. In kind it is cell-based.
Source text: as §1, §2

In the next assay the test system is BaF3-NPM-ALK. As to the kind of experiment: Cell growth (Cell Titer-Glo viability), BaF3-NPM-ALK. Type of assay: cell-based. Conditions: Mus musculus; BaF3-NPM-ALK (stably expressing ALK kinase), 72 hrs.
Source text: as §1, §2

In the next assay the test system is BaF3-TEL-INSR. Description: Cell growth (Cell Titer-Glo viability), BaF3-TEL-INSR. Conditions: Mus musculus; BaF3-TEL-INSR (stably expressing INSR protein), 72 hrs. Type of assay: cell-based.
Source text: as §1, §2

Regarding `C=CC(=O)Nc1cc(Nc2ncc(Cl)c(Nc3ccccc3S(=O)(=O)C(C)C)n2)c(OC)cc1N1CCN(C(=O)OC(C)(C)C)CC1` [Compound 3, tert-butyl 4-(2-acrylamido-4-(5-chloro-4-(2-(isopropylsulfonyl)phenylamino)pyrimidin-2-ylamino)-5-methoxyphenyl)piperazine-1-carbonate], the GI50 was 0.13 µM in the assay on BaF3-FL-EGFR-Del19; above 10 µM in the assay on CHL; 4.7 µM in the assay on BaF3; above 10 µM in the assay with CHO; 0.29 µM with BaF3-TEL-EGFR-T790M; 0.032 µM in the assay on NCI-H3122. The concentration for 50% growth inhibition (GI50) was 1.3 µM in the assay with BaF3-ALK-F1174L; 0.024 µM in the assay on BaF3-TEL-ALK; 1.2 µM with A431; 0.38 µM in the assay on NCI-H1975; above 10 µM in the assay with A549; 0.37 µM in the assay with HCC827. The GI50 in the assay with PC-9 worked out at 0.25 µM; in the assay with NCI-H2228, 0.56 µM; with HCC4006, 1.1 µM; with NCI-H2122, 0.71 µM.

Take `C=CC(=O)Nc1cc(Nc2ncc(Cl)c(Nc3ccccc3S(=O)(=O)C(C)C)n2)c(OC)cc1N1CCN(S(C)(=O)=O)CC1` [Compound 5, N-(5-(5-chloro-4-(2-(isopropylsulfonyl)phenylamino)pyrimidin-2-ylamino)-4-methoxy-2-(4-(methylsulfonyl)piperazin-1-yl)phenyl)acrylamide]: the 50% growth inhibitory concentration (GI50) with BaF3-FL-EGFR-Del19 was 0.007 µM; in the assay on CHL, 2.3 µM; in the assay with BaF3, 2.8 µM; with CHO, 5.2 µM; in the assay with BaF3-TEL-EGFR-T790M, 0.053 µM; in the assay on NCI-H3122, below 0.0003 µM. The GI50 turned out to be 2.3 µM with BaF3-ALK-F1174L; 0.01 µM with BaF3-TEL-ALK; 1.1 µM in the assay on A431; 0.04 µM in the assay on NCI-H1975; 3.3 µM with A549; 0.044 µM in the assay with HCC827. Moreover, the GI50 in the assay on PC-9 was 0.039 µM; in the assay with NCI-H2228, 0.24 µM; with HCC4006, 0.16 µM; with NCI-H2122, 0.17 µM.

As for `C=CC(=O)Nc1cc(Nc2ncc(Cl)c(Nc3ccccc3S(=O)(=O)C(C)C)n2)c(OC)cc1N1CCCCC1` [Compound 6, N-(5-(5-chloro-4-(2-(isopropylsulfonyl)phenylamino)pyrimidin-2-ylamino)-4-methoxy-2-(piperidin-1-yl)phenyl) acrylamide], the GI50 was 0.006 µM in the assay on BaF3-FL-EGFR-Del19; above 10 µM in the assay on CHL; 0.34 µM with BaF3; 0.36 µM in the assay on CHO; 0.018 µM in the assay on BaF3-TEL-EGFR-T790M; 0.029 µM in the assay on NCI-H3122. Moreover, the GI50 amounted to 0.31 µM with BaF3-ALK-F1174L; 0.015 µM with BaF3-TEL-ALK; 0.54 µM in the assay on A431; 0.24 µM in the assay with NCI-H1975; 0.33 µM in the assay on A549; 0.051 µM in the assay with HCC827. The GI50 came out at 0.027 µM with PC-9, 0.2 µM with NCI-H2228, 0.26 µM in the assay with HCC4006 and 0.88 µM in the assay with NCI-H2122.

Turning to `C=CC(=O)Nc1cc(Nc2ncc(Cl)c(Nc3ccccc3P(C)(C)=O)n2)c(OC)cc1N1CCN(CC)CC1` [Compound 47, N-(5-(5-chloro-4-(2-(dimethylphosphinoyl)phenylamino)pyrimidin-2-ylamino)-2-(4-ethylpiperazin-1-yl)-4-methoxyphenyl)acrylamide], the GI50 in the assay with NCI-H3255 is 0.14 µM; in the assay on BaF3, above 10 µM; in the assay on BaF3-NPM-ALK, 0.31 µM; with NCI-H3122, 0.037 µM; in the assay on BaF3-TEL-ALK it was 0.074 µM; with BaF3-TEL-INSR, 0.072 µM. The GI50 in the assay with NCI-H1975 is 0.026 µM; with A549 it was 1.7 µM; in the assay on HCC827, below 0.0003 µM; in the assay on PC-9 it was 0.005 µM.

For `C=CC(=O)Nc1cc(Nc2ncc(Cl)c(Nc3ccccc3P(C)(C)=O)n2)c(OC)cc1N1CCC(N2CCCCC2)CC1` [Compound 48, N-(5-(5-chloro-4-(2-(dimethylphosphinoyl)phenylamino)pyrimidin-2-ylamino)-4-methoxy-2-(4-(piperidin-1-yl)piperidin-1-yl)phenyl)acrylamide], the GI50 in the assay with NCI-H3255 turned out to be 0.2 µM; in the assay on BaF3, 5.3 µM; in the assay on BaF3-NPM-ALK it was 0.38 µM; in the assay on NCI-H3122, 0.078 µM; in the assay with BaF3-TEL-ALK it was 0.19 µM; with BaF3-TEL-INSR it was 0.29 µM. Also, the GI50 worked out at 0.041 µM in the assay on NCI-H1975, 5.3 µM with A549, 0.005 µM with HCC827 and 0.032 µM in the assay on PC-9.

As for `C=CC(=O)Nc1cc(Nc2ncc(Cl)c(Nc3ccccc3P(C)(C)=O)n2)c(OC)cc1N1CCC(N(C)C)CC1` [Compound 49, N-(5-(5-chloro-4-(2-(dimethylphosphinoyl)phenylamino)pyrimidin-2-ylamino)-2-(4-(dimethylamino)piperidin-1-yl)-4-methoxyphenyl)acrylamide], the GI50 in the assay on NCI-H3255 is 0.35 µM; in the assay on BaF3, above 10 µM; in the assay with BaF3-NPM-ALK it was 0.6 µM; with NCI-H3122, 0.14 µM; in the assay with BaF3-TEL-ALK, 0.45 µM; in the assay with BaF3-TEL-INSR, 0.92 µM. Also, the GI50 in the assay on NCI-H1975 is 0.22 µM; in the assay with A549, 8.6 µM; with HCC827, 0.015 µM; in the assay with PC-9, 0.12 µM.

What is called GI50 is the concentration that inhibits growth by half.
